Measurements as given in PMC10291549, “Reaction Behavior of [1,3-Diethyl-4,5-diphenyl-1H-imidazol-2-ylidene] Containing Gold(I/III) Complexes against Ingredients of the Cell Culture Medium and the Meaning on the Potential Use for Cancer Eradication Therapy” (Journal of Medicinal Chemistry, 2023).

Key:
A549 cells = type: cell-based; details: 72 h incubation; mean ± SD of two or three independent experiments; read-out: metabolic activity IC50, A549
[1] = system: A549-R cells (Taxol/Paclitaxel-resistant subclone); type: cell-based; details: 72 h incubation; mean ± SD of two or three independent experiments; read-out: metabolic activity IC50, A549-R
K562 cells = type: cell-based; details: 72 h incubation; mean ± SD of two or three independent experiments; read-out: metabolic activity IC50, K562
[2] = system: K562-R cells (Doxorubicin-resistant subclone); type: cell-based; details: 72 h incubation; mean ± SD of two or three independent experiments; read-out: metabolic activity IC50, K562-R
MCF-7 cells = type: cell-based, human; details: 72 h incubation; mean ± SD of two or three independent experiments; read-out: metabolic activity IC50, MCF-7
[3] = system: MCF-7TamR cells (Tamoxifen-resistant subline); type: cell-based, human; details: 72 h incubation; mean ± SD of two or three independent experiments; read-out: metabolic activity IC50, MCF-7TamR
A2780 cells = type: cell-based, human; details: 72 h incubation; mean ± SD of two or three independent experiments; read-out: metabolic activity IC50, A2780
[4] = system: A2780cis cells (Cisplatin-resistant); type: cell-based, human; details: 72 h incubation; mean ± SD of two or three independent experiments; read-out: metabolic activity IC50, A2780cis
IGROV1 cells = type: cell-based; details: 72 h incubation; mean ± SD of two or three independent experiments; read-out: metabolic activity IC50, IGROV1
IGROV1-CSC cells = type: cell-based; details: 72 h incubation; mean ± SD of two or three independent experiments; read-out: metabolic activity IC50, IGROV1-CSC
[5] = system: SV-80 lung fibroblast cells; experiment: Modified MTT assay in noncancerous cells; type: cell-based; details: at 10 μM; mean of three independent experiments
[6] = HPLC reactivity study in chloride containing ACN/water; type: physicochemical; details: t24h; chloride containing ACN/water 50/50; 0.5 mM
[7] = HPLC reactivity study with GSH in ACN/water; type: physicochemical; details: t0h (1.5 min); 20 equiv GSH; ACN/water 50/50; 0.5 mM
Method: All nucleophiles (chloride, amino acids, and GSH) were separately reacted with 5–11 in ACN/water = 50/50 (v/v) mixtures at a complex concentration 0.5 mM. This solvent composition was chosen to prevent precipitation of the complex and the formed degradation products.
Amino acids, as well as GSH, were used in 20-fold excess, as realized at a complex concentration of 10 μM in the cell culture medium. Thereto, the respective complex, dissolved in ACN (1 mM), was combined with the same amount of aqueous solution of the nucleophile (20 mM).
The mixture was then incubated for 24 h at rt and monitored at various time points via HPLC using an RP-C18 column and gradient elution (70/30 (v/v) to 90/10 (v/v)) of ACN/water (0.1% trifluoroacetic acid (TFA)).
(§1) Experiments in ACN/water: 1.0 mM solutions of the respective complex were prepared in ACN and diluted with HPLC-grade water (50/50, (v/v)) containing the double-concentrated amount of respective amino acid (20 mM), GSH (20 mM), sodium ascorbate (20 mM), or NADPH (20 mM). As a chloride source, an aqueous solution of KCl 0.8 g/L and NaCl 12 g/L was used. In each case, a final complex concentration of 0.5 mM was achieved. The solutions were incubated for 24 h at rt. For the experiments with RPMI 1640, the aqueous phase was replaced by a cell culture medium.
(§2) Samples (20 μL each) were taken at appropriate time points (t = 0 (1.5 min), 0.5, 1, 1.5, 2, 8, 12, and 24 h) and analyzed with a Shimadzu prominence HPLC system. The mobile phase consisted of ACN (HPLC-grade) and water (HPLC-grade) with 0.1% TFA. To achieve a separation of the compounds, gradient elution from (70/30 (v/v) to 90/10 (v/v)) of ACN/water (0.1% trifluoroacetic acid (TFA)) was used with a flow rate of 1 mL/min at an oven temperature of 35 °C. All solvents have been degassed before use. The injection volume was 20 μL, and the detection wavelength was set at 235 nm, to detect the gold complexes and the amino acids in the chromatogram.

[8] = HPLC reactivity study with sodium ascorbate; type: physicochemical; details: 24 h
Method: (§3) GSH caused only substitution reactions, without reduction of Au(I) to Au(0). […] Neither reduction to gold(0), release of the NHC ligand, nor coordination to the gold(I) center occurred.
as §1, §2

[9] = HPLC reactivity study with NADPH; type: physicochemical; details: 24 h
Method: as §3, §1, §2

[10] = HPLC control experiment with GSH in PBS; type: physicochemical; details: 20 equiv GSH in PBS
Method: The reduced transformation (compared to the direct reaction with GSH) might be the consequence of the high chloride concentration in the medium. To confirm this assumption, 5 was incubated in a control experiment with 20 equiv of GSH (as described above) in phosphate buffered saline (PBS). At t0h, 65.7% of 12 was formed. The amount increased during 24 h to 68.0% of 12 and 2.1% of 8 appeared (Figure S33).
as §1, §2

[11] = HPLC degradation study in ACN/RPMI 1640 cell culture medium; details: t24h; ACN/RPMI 1640 50/50; 0.5 mM

## Chlorido[1,3-diethyl-4,5-diphenyl-1H-imidazol-2-ylidene]gold(I) [Complex 5]
A549 cells
  IC50: > 10 µM
[1]
  IC50: > 10 µM
K562 cells
  IC50: > 10 µM
[2]
  IC50: > 10 µM
MCF-7 cells
  IC50: 5.76 ± 0.88 µM
[3]
  IC50: 4.95 ± 0.39 µM
A2780 cells
  IC50: 9.45 ± 0.96 µM
[4]
  IC50: 4.08 ± 0.8 µM
IGROV1 cells
  IC50: 7.53 ± 1.9 µM
IGROV1-CSC cells
  IC50: 9.18 ± 1.32 µM
[5]
  metabolic activity (remaining) in SV-80 cells: 64%
[6]
  formation of 8 (ligand scrambling / reduction): 0.9%
[7]
  substitution to (NHC)Au(I)-GSH adduct 12: quantitatively
[8]
  ligand scrambling to 8: 3.4%
[9]
  ligand scrambling to 8: 5.6%
[10]; t0h
  formation of 12: 65.7%
[10]; t24h
  formation of 8: 2.1%
  formation of 12: 68.0%
[11]
  formation of 8: 6.2%
  formation of GSH-adduct 12: 5.1%
